Laboratory results published in patent US20030235916A1, “Novel methods for the delivery of polynucleotides to cells” (priority 2002, published 2003).
d = 2'-deoxy (DNA); r = 2'-OH (RNA)

Key:
[1] = tested on: rhodamine labeled PCILuc DNA (pDNA); assay: Rhodamine labeled DNA condensation with cationic surfactants (fluorescence quenching), Example 19; type: physicochemical
Method: (§1) PCILuc DNA (pDNA) [Zhang et al. 1997] was modified to a level of 1 rhodamine per 100 bases using Mirus' Label IT® Rhodamine kit (Rhodamine Containing DNA Labeling Reagent, Mirus Corporation). The modified pDNA (10 μg) was mixed with pDNA that was not labeled (90 μg) in water and diluted to a final concentration of 1 μg/μL with water. The modified pDNA/pDNA mixture (5 μg) was diluted with water to a final volume of 500 μL. Different amounts of CTAB were added to the solution and the fluorescence intensity of the solution was measured using a Cary Eclipse Fluorescence Spectrophotometer (ex=555, em=585, Varian, Inc.). Trubetskoy et al have shown that rhodamine labeled pDNA undergoes fluorescence quenching as the pDNA is condensed [Trubetskoy, 1999].
as §1, with “It®” for “IT®”, “dodecylamine hydrochloride” for “CTAB”

[2] = tested on: luciferase expression (pCI Luc / pCI Ren) in liver of ICR mice; assay: HP tail vein dual luciferase: siRNA delivery (Example 77); type: in vivo; conditions: hydrophobic siRNA
Method: HP Tail Vein Dual Luciferase: siRNA delivery Five complexes were prepared as follows:
Tail vein injections of 1.0 mL per 10 g body weight (˜2.5 ml) were preformed on ICR mice (n=2) using a 30 gauge, 0.5 inch needle. Injections were done manually with injection times of 4-5 sec [Zhang et al. 1999; Liu et al. 1999]. One day after injection, the livers were harvested and homogenized in lysis buffer (0.1% Triton X-100, 0.1 M K-phosphate, 1 mM DTT, pH 7.8). Insoluble material was cleared by centrifugation and 10 μl of the cellular extract or extract diluted 10× was analyzed for luciferase activity as previously reported [Wolffetal 1990].

Molecule: CCCCCCCCCCCCCCCC[N+](C)(C)C.[Br-] [CTAB, cetyltrimethylammonium bromide, reference compound]
- surfactant concentration at which the pDNA is condensed ([1]; 5 μg rhodamine pDNA mixture in 500 μL water): 0.33 mM
- Fluor Int ([1]; N/P 0.4, 2 μg CTAB, 0.011 mM CTAB, 5 μg pDNA in 500 μL water, ex=555, em=585): 201.540
- Fluor Int ([1]; N/P 0.7, 4 μg CTAB, 0.022 mM CTAB): 159.277
- Fluor Int ([1]; N/P 1.1, 6 μg CTAB, 0.033 mM CTAB): 85.253
- Fluor Int ([1]; N/P 1.4, 8 μg CTAB, 0.044 mM CTAB): 81.625
- Fluor Int ([1]; N/P 1.8, 10 μg CTAB, 0.055 mM CTAB): 78.471
- Fluor Int ([1]; N/P 2.2, 12 μg CTAB, 0.066 mM CTAB): 74.722
- Fluor Int ([1]; N/P 2.5, 14 μg CTAB, 0.077 mM CTAB): 67.267
- Fluor Int ([1]; N/P 2.9, 16 μg CTAB, 0.088 mM CTAB): 62.799

Molecule: CCCCCCCCCCCCN.Cl [NC12, dodecylamine hydrochloride]
- Fluor Int ([1]; N/P 0.6, 2 μg NC12, 0.018 mM NC12, 5 μg pDNA in 500 μL water, ex=555, em=585): 183.656
- Fluor Int ([1]; N/P 1.2, 4 μg NC12, 0.036 mM NC12): 106.095
- Fluor Int ([1]; N/P 1.8, 6 μg NC12, 0.054 mM NC12): 95.586
- Fluor Int ([1]; N/P 2.4, 8 μg NC12, 0.072 mM NC12): 86.119
- Fluor Int ([1]; N/P 3.0, 10 μg NC12, 0.090 mM NC12): 77.670
- Fluor Int ([1]; N/P 3.6, 12 μg NC12, 0.108 mM NC12): 68.208
- Fluor Int ([1]; N/P 4.2, 14 μg NC12, 0.126 mM NC12): 62.115
- Fluor Int ([1]; N/P 4.8, 16 μg NC12, 0.144 mM NC12): 60.158
- Fluor Int ([1]; N/P 5.4, 18 μg NC12, 0.162 mM NC12): 53.467
- Fluor Int ([1]; N/P 6.0, 20 μg NC12, 0.180 mM NC12): 46.790
- Fluor Int ([1]; N/P 6.5, 22 μg NC12, 0.198 mM NC12): 43.375
- Fluor Int ([1]; N/P 7.1, 24 μg NC12, 0.216 mM NC12): 45.000

Molecule: GL3-153: siRNA duplex, SEQ ID 12 and its compliment SEQ ID 13, Dharmacon (sense CUUACGCUGAGUACUUCGATT; antisense UCGAAGUACUCAGCGUAAGTT; sugars from the 5' end r19 d2, backbone not given here; listed as Photinus pyralis)
- inhibition of luciferase expression [2]: inhibits luciferase expression
